Measured values reported in paper PMC3688284 (ACS chemical biology, 2011).

Tests used:
[1] = biological target: recombinant human wild type LRRK2 (Homo sapiens, UniProt Q5S007); assay: TR-FRET-based kinase activity assay, wild type LRRK2; assay type: biochemical; conditions: read-out: IC50, human wild type LRRK2 activity, ATP 100 μM
[2] = biological target: G2019S LRRK2 (Homo sapiens, UniProt Q5S007, G2019S); assay: TR-FRET-based kinase activity assay, G2019S LRRK2; assay type: biochemical; conditions: read-out: IC50, G2019S LRRK2 activity, ATP 100 μM
[3] = test system: human cortical neurons; assay: AlamarBlue cytotoxicity assay in primary human cortical neurons; assay type: cell-based; conditions: for Concentration at which overt cytotoxicity was seen: human cortical neurons
[4] = Pharmacokinetics studies; conditions: in vivo
[5] = test system: rat primary cortical neurons transfected with LRRK2 G2019S; assay type: cell-based
[6] = test system: rat primary cortical neurons transfected with LRRK2 R1441C; assay type: cell-based; conditions: at higher concentrations
[7] = test system: LRRK2 G2019S-transfected human cortical neurons; assay: Neurite morphology assay in primary human cortical neurons; conditions: for EC50: read-out: EC50, attenuation of G2019S LRRK2-induced human neuronal injury
[8] = biological target: mouse LRRK2 (mouse kidney lysate) (Mus musculus, UniProt Q5S006); assay: Competition-binding assay with la-S7 matrix; conditions: concentrations as high as 100 μM tested; 5 mg/mL protein
[9] = biological target: LRRK2 (human K562 extracts) (Homo sapiens, UniProt Q5S007); assay: la-S7 binding assay in human K562 extracts; conditions: concentrations as high as 100 μM tested; 5 mg/mL protein
Chain of LRRK2 (human K562 extracts) (Q5S007 whole entry): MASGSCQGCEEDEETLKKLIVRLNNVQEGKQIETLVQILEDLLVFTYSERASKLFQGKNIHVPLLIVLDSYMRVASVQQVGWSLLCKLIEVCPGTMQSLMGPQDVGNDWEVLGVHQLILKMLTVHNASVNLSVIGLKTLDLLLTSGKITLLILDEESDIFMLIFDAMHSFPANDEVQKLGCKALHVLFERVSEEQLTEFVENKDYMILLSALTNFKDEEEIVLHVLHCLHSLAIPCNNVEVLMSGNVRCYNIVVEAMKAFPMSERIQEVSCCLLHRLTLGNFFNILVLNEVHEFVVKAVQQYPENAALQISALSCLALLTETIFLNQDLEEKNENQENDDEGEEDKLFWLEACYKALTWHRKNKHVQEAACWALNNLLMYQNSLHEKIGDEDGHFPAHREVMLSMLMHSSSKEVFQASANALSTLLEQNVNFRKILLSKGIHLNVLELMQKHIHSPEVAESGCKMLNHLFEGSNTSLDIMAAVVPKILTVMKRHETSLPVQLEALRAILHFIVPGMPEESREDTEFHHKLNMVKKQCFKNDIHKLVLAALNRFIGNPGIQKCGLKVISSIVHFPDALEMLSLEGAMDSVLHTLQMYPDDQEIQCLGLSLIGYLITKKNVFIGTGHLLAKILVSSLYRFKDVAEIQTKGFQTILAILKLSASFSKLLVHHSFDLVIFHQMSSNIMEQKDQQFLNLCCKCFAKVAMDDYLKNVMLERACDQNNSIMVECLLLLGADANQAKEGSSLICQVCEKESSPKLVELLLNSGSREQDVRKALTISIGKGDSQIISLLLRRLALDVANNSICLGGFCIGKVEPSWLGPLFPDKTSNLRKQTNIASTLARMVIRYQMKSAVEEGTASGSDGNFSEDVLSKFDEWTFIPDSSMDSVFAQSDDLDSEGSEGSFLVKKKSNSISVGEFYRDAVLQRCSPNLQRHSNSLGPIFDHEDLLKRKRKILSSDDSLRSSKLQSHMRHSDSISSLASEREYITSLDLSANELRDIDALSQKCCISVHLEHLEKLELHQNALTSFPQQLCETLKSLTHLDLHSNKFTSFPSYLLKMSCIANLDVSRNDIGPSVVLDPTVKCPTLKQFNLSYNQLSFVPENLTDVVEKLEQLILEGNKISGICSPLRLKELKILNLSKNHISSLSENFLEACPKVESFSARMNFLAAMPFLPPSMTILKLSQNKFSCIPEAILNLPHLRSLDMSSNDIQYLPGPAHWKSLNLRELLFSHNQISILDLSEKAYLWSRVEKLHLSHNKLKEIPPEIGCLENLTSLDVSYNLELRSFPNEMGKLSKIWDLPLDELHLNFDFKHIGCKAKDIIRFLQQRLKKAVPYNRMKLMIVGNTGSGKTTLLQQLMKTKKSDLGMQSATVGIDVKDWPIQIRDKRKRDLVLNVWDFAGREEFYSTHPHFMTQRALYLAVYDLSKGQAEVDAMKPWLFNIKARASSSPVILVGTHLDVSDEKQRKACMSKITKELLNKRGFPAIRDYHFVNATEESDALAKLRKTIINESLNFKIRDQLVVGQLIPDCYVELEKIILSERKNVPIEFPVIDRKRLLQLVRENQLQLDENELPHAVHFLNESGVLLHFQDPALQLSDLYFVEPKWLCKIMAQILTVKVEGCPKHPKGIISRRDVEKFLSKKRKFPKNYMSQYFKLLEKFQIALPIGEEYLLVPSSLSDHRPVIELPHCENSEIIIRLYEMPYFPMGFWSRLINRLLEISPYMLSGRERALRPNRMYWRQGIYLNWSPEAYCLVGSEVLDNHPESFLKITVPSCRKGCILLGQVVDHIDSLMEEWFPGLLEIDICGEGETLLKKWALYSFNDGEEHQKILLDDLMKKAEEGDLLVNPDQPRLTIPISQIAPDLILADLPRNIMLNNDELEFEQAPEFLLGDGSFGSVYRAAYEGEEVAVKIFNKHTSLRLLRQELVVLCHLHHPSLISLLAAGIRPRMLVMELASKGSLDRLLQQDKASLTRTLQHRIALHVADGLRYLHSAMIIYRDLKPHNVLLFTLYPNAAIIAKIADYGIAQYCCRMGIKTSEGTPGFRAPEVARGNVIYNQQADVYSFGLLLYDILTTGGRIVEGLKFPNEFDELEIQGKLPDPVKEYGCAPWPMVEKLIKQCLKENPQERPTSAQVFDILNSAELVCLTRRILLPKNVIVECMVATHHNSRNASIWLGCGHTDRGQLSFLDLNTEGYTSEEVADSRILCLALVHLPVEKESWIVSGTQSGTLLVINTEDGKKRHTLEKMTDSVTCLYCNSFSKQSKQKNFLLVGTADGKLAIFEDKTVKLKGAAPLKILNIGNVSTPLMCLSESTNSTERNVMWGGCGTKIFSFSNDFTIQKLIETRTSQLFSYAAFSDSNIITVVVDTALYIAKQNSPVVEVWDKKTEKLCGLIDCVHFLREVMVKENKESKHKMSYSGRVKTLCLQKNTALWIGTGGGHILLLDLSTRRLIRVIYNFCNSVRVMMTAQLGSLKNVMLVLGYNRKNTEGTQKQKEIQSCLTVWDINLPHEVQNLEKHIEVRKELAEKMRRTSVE

Chain of recombinant human wild type LRRK2 (Q5S007 whole entry): as above
Chain of G2019S LRRK2 (Q5S007 whole entry G2019S): as the sequence (Q5S007 whole entry) above, with G2019S counted along it
Chain of mouse LRRK2 (mouse kidney lysate) (Q5S006 1879-2146 limits assumed): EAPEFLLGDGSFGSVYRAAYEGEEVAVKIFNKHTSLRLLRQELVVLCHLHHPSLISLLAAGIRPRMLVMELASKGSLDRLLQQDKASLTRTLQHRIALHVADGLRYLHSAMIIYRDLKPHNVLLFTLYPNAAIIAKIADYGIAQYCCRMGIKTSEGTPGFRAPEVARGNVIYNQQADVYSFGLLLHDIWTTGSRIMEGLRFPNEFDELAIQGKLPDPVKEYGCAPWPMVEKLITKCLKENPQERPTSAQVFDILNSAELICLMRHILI

SMILES	IC50 [1] [nM]	IC50 [2] [nM]	Concentration at which overt cytotoxicity was seen [3] [nM]	Concentrations at which no cytotoxicity was caused ([3]; seven-day treatment in culture)	Brain penetration [4]	Clearance [4] [mL/min/kg]	Volume of distribution [4] [L/kg]	Block of G2019S LRRK2-induced toxicity ([5]; at higher concentrations)	EC50 ([5]; read-out: EC50, attenuation of G2019S LRRK2-induced neuronal injury and death, primary rodent cortical neurons) [nM]	Block of R1441C-induced toxicity [6]	Concentration fully reversing G2019S LRRK2-induced injury to wild-type levels [7] [nM]	EC50 [7] [nM]	IC50 in la-S7 binding assay, mouse kidney extracts [8]	IC50 in la-S7 binding assay, human K562 extracts [9]
COc1cc(N2CCOCC2)ccc1Nc1ncc(F)c(Nc2ccccc2NS(C)(=O)=O)n1 [CZC-25146]	4.76	6.87	5000	below 5 μM	~ 4%	38.3	5.4	completely blocked	~100	completely blocked	8	~4		
COc1cc(N2CCOCC2)ccc1Nc1ncc(Cl)c(Nc2ccccc2NS(C)(=O)=O)n1 [CZC-54252]	1.28	1.85	≥ 1000		~ 4%						1.6	~1		
O=C1Nc2ccc(I)cc2/C1=C/c1cc(Br)c(O)c(Br)c1 [GW-5074]													no valid IC50s	no valid IC50s
